Key:
CEM cells = assay: Apoptotic cell death by DNA fragmentation, CEM; format: cell-based, human; details: for effect on ABT-263-induced apoptosis: ABT-263 plus 10 μM flavone, 30 h
Method: (§1) The human malignant cell lines used in this study are the T cell leukemic cell lines CEM, Molt-4 and Jurkat (J16), the HL cell line KM-H2, the cervix adenocarcinoma cell line HeLa, the melanoma cell line A375, the hepatocellular carcinoma cell line HepG2, the pancreatic carcinoma cell line MiaPaca, the breast cancer cell line MCF-7, the prostatic cancer cell line PC3 and the colon carcinoma cell line HCT116. All cells were cultured in RPMI 1640 or DMEM medium (GIBCO laboratories, Grand Island, USA), supplemented with 10% FCS, 100 Units/ml penicillin (GIBCO), 100 μg/m1 streptomycin (GIBCO) and 2 mM L-glutamine (GIBCO) at 37° C. and 5%. Wogonin (BIOTREND Chemicals AG, Wangen, Switzerland), apigenin, chrysin, luteolin and baicalein (Sigma, St. Louis, USA) were solved in dimethyl sulfoxide (DMSO; Roth, Karlsruhe, Germany) at a stock concentration of 50 mM. Cells were treated with different concentrations of different flavones or ABT-263 (Selleck Chemicals, Houston, USA) for 24 to 48 h. Apoptotic cell death was examined by analysis of DNA fragmentation as previously described 23 (Fas et al.,2006, Blood 108: 3700-6). Results are presented as % specific DNA fragmentation using the formula: (percentage of experimental apoptosis-percentage of spontaneous apoptosis)/(100-percentage of spontaneous apoptosis)×100.

Molt-4 cells = assay: Apoptotic cell death by DNA fragmentation, Molt-4; format: cell-based, human
Method: as §1

Jurkat (J16) cells = assay: Apoptotic cell death by DNA fragmentation, Jurkat; format: cell-based, human
Method: as §1

Mcl-1 = assay: Western blot analysis of Mcl-1 expression; format: cell-based, human; details: for Mcl-1 protein expression: 50 μM flavone
Excerpt: For each sample, 1×10^7 cells were lysed as previously described. 23 Equal amounts of protein were separated on 5-13% SDS-PAGE depending on the molecular sizes of the proteins and blotted onto a nitrocellulose membrane (Amersham Biosciences, Little Chalfon, UK) as previously described. 23 The following antibodies were used: Bad, Bax, Bcl-xL, Bcl-w, XIAP from Cell Signaling Technology, Danvers, USA; Bcl-2 (sc-509) and Mcl-1 (sc-819) from Santa Cruz Biotechnology, Heidelberg, Germany; Tubulin and actin from Sigma, Saint Louis, USA.

CEM tumors = assay: CEM xenograft in immunodeficient mice; format: in vivo; details: Rag2-/-/Il2rg-/- mice, s.c. CEM; ABT-263 50 mg/kg p.o. and/or wogonin 50 mg/kg i.p.
Method: Immunodeficient mice (Rag2−/−/II2rg−/−) were implanted subcutaneously in the dorsal flank region with CEM (5×10^7 cells). After the tumors reached to approximate 35 mm3, tumor size matched mice were treated with ABT-263 (50 mg/kg, once in each third or fourth day) in the presence or absence of 50 mg/kg wogonin. ABT-263 was formulated according to the protocol previously described 9 and administered p.o. Wogonin dissolved in DMSO was diluted in sunflower oil and administered i.p. For combination studies, ABT-263 was given 2 h before wogonin. The control group was treated in an analogous manner with the vehicle. The tumor size was measured with a micrometer caliper two to three times weekly and the tumor volume (V) was calculated by the formula V=(width2×length)/2. All protocols using and maintaining animals were approved by the German Animal Protection Authority (Office Regierungsprasidium Karlsruhe) in Karlsruhe.

[1] = test system: breast cancer cell line MCF-7; assay: Apoptotic cell death by DNA fragmentation, MCF-7; format: cell-based, human; details: ABT-263 plus 50 μM wogonin, 48 h
Method: as §1

[2] = test system: ABT-263-resistant CEM (CEM-R); assay: Apoptotic cell death by DNA fragmentation, ABT-263-resistant CEM; format: cell-based, human; details: CEM-R; ABT-263 with wogonin
Method: (§2) Wogonin (BIOTREND Chemicals AG, Wangen, Switzerland), apigenin, chrysin, luteolin and baicalein (Sigma, St. Louis, USA) were solved in dimethyl sulfoxide (DMSO; Roth, Karlsruhe, Germany) at a stock concentration of 50 mM. Cells were treated with different concentrations of different flavones or ABT-263 (Selleck Chemicals, Houston, USA) for 24 to 48 h. Apoptotic cell death was examined by analysis of DNA fragmentation as previously described 23 (Fas et al.,2006, Blood 108: 3700-6). Results are presented as % specific DNA fragmentation using the formula: (percentage of experimental apoptosis-percentage of spontaneous apoptosis)/(100-percentage of spontaneous apoptosis)×100.

Human platelets = assay: Platelet apoptotic cell death by annexin V/FITC staining; format: cell-based; details: ABT-263 with wogonin, 1 h
Method: (§3) Normal T cells were isolated from peripheral blood of healthy donors and activated to proliferate as described in the Materials and Methods. The proliferating T cells were treated with different concentrations of ABT-263 in the absence or presence of wogonin as indicated. Apoptotic cell death was determined by DNA fragmentation. Results are presented as pooled data from four independent donors. (B) Proliferating normal T cells express higher levels of Mcl-1 and Bcl-2 than leukemic Jurkat and Molt-4 T cells. Total cell lysates of activated T cells from three healthy donors were compared with leukemic cells for the expression levels of Mcl-1, Bcl-2, Bcl-xL and Bcl-w. CDK6 is known to be over-expressed in many tumor cells and was used as a marker for malignant cells. Representative blots from two independent experiments are shown. […] Human platelets in 10% FCS were treated with different concentrations of ABT-263 in the absence or presence of wogonin as indicated. After 1 h treatment, apoptotic cell death was determine by staining with annexin V/FITC. Results are average of two independent assays.
Human peripheral blood T cells were prepared as described previously 23 and were more than 90% CD3 positive. For generation of proliferating T cells, freshly isolated T cells were cultured at 2×10^6 cells/ml and were activated with 1 mg/ml PHA overnight. […]

[3] = test system: cervix adenocarcinoma cell line HeLa; assay: Apoptotic cell death by DNA fragmentation, HeLa; format: cell-based, human; details: ABT-263 plus 50 μM wogonin, 48 h
Method: as §1

[4] = test system: prostatic cancer cell line PC3; assay: Apoptotic cell death by DNA fragmentation, PC3; format: cell-based, human; details: ABT-263 plus 50 μM wogonin, 48 h
Method: as §1

melanoma cell line A375 = assay: Apoptotic cell death by DNA fragmentation, A375; format: cell-based, human; details: ABT-263 plus 50 μM wogonin, 48 h
Method: as §1

[5] = test system: proliferating normal peripheral blood T cells; assay: Apoptotic cell death by DNA fragmentation, proliferating normal T cells; format: cell-based; details: ABT-263 with wogonin, four healthy donors
Method: as §3
Human peripheral blood T cells were prepared as described previously 23 and were more than 90% CD3 positive. For generation of proliferating T cells, freshly isolated T cells were cultured at 2×10^6 cells/ml and were activated with […] PHA overnight. Activated T cells were then washed three times and cultured for additional 5 days in the presence of 25 U/ml IL-2. Platelets were prepared as described in Vogler et al., 2011, Blood 117: 7145-54.
Wogonin (BIOTREND Chemicals AG, Wangen, Switzerland), apigenin, chrysin, luteolin and baicalein (Sigma, St. Louis, USA) were solved in dimethyl sulfoxide (DMSO; Roth, Karlsruhe, Germany) at a stock concentration of 50 mM. Cells were treated with different concentrations of different flavones or ABT-263 (Selleck Chemicals, Houston, USA) for 24 to 48 h. Apoptotic cell death was examined by analysis of DNA fragmentation as previously described 23 (Fas et al.,2006, Blood 108: 3700-6). […]

[6] = test system: colon carcinoma cell line HCT116; assay: Apoptotic cell death by DNA fragmentation, HCT116; format: cell-based, human; details: ABT-263 plus 50 μM wogonin, 48 h
Method: as §1

[7] = test system: hepatocellular carcinoma cell line HepG2; assay: Apoptotic cell death by DNA fragmentation, HepG2; format: cell-based, human; details: HepG2; ABT-263 plus 50 μM wogonin, 48 h
Method: as §1

[8] = test system: ABT-263-resistant Jurkat (Jurkat-R); assay: Apoptotic cell death by DNA fragmentation, ABT-263-resistant Jurkat; format: cell-based, human; details: Jurkat-R; ABT-263 with wogonin
Method: as §2

[9] = ABT-263 plus different concentrations of wogonin, 24 h
[10] = wogonin alone at the concentrations used for combination, 24 h
[11] = Jurkat 16, ABT-199 with wogonin

Structure (SMILES): CC1(C)CCC(CN2CCN(c3ccc(C(=O)NS(=O)(=O)c4ccc(NCC5CCOCC5)c([N+](=O)[O-])c4)c(Oc4cnc5[nH]ccc5c4)c3)CC2)=C(c2ccc(Cl)cc2)C1 [ABT-199, 4-[4-[[2-(4-chlorophenyl)-4,4-dimethyl-1-cyclohexen-1-yl]methyl]-1-piperazinyl]-N-[[3-nitro-4-[[(tetrahydro-2H-pyran-4-yl)methyl]amino]phenyl]sulfonyl]-2-(1H-pyrrolo[2,3-b]pyridin-5-yloxy)-Benzamide]
- EC50 (CEM cells; Homo sapiens, CCRF-CEM, ABT-199 alone, read-out: concentration inducing 50% apoptotic cell death): 5 to 10 µM
- EC50 (Molt-4 cells; Homo sapiens, ABT-199 alone, read-out: concentration inducing 50% apoptotic cell death): 5 to 10 µM
- EC50 (Jurkat (J16) cells; Homo sapiens, Jurkat 16, ABT-199 alone, read-out: concentration inducing 50% apoptotic cell death): 5 to 10 µM

Structure (SMILES): O=c1cc(-c2ccc(O)cc2)oc2cc(O)cc(O)c12 [Apigenin]
- Mcl-1 protein expression (Mcl-1; CEM, 8 h): Down-regulation of Mcl-1 protein expression
- effect on ABT-263-induced apoptosis (CEM cells): enhance ABT-263-induced apoptosis in CEM cells in a dose-dependent manner

Structure (SMILES): O=c1cc(-c2ccccc2)oc2cc(O)c(O)c(O)c12 [baicalein]
- Mcl-1 protein expression (Mcl-1; CEM, 8 h): Down-regulation of Mcl-1 protein expression
- effect on ABT-263-induced apoptosis (CEM cells): enhance ABT-263-induced apoptosis in CEM cells in a dose-dependent manner

Structure (SMILES): O=c1cc(-c2ccccc2)oc2cc(O)cc(O)c12 [chrysin]
- Mcl-1 protein expression (Mcl-1; CEM, 8 h): Down-regulation of Mcl-1 protein expression
- effect on ABT-263-induced apoptosis (CEM cells): enhance ABT-263-induced apoptosis in CEM cells in a dose-dependent manner

Structure (SMILES): O=c1cc(-c2ccc(O)c(O)c2)oc2cc(O)cc(O)c12 [luteolin]
- Mcl-1 protein expression (Mcl-1; CEM, 8 h): Down-regulation of Mcl-1 protein expression
- effect on ABT-263-induced apoptosis (CEM cells): enhance ABT-263-induced apoptosis in CEM cells in a dose-dependent manner

Structure (SMILES): COc1c(O)cc(O)c2c(=O)cc(-c3ccccc3)oc12 [wogonin, 5,7-dihydroxy-8-methoxy-2-phenyl-4H-chromen-4-one]
- tumor growth / tumor response (CEM tumors): no significant inhibition of tumor growth
- effect on ABT-263-mediated apoptotic cell death [1]: dose-dependent increase
- re-sensitization to ABT-263-induced apoptotic cell death [2]: re-sensitized to ABT-263 treatment
- Mcl-1 expression (Mcl-1; ABT-263-resistant Jurkat and CEM, wogonin): significantly inhibited Mcl-1 expression
- Mcl-1 expression (Mcl-1; CEM, Jurkat and Molt-4, 50 μM wogonin, 8 h): down-regulation of Mcl-1 expression
- Mcl-1 expression (Mcl-1; CEM, Jurkat and Molt-4, 50 μM wogonin, 8 h, listed as Wogonin): down-regulates Mcl-1 expression
- Mcl-1 expression (Mcl-1; all tumor cell lines tested other than MiaPaca, 50 μM wogonin, 8 h): down-regulated
- effect on toxicity of ABT-263 to platelets (Human platelets): did not enhance the toxicity of ABT-263
- effect on toxicity of ABT-263 to platelets (Human platelets; listed as Wogonin): does not enhance the toxicity of ABT-263
- effect on ABT-263-mediated apoptotic cell death [3]: dose-dependent increase
- reduction of the ABT-199 dose (CEM cells; ABT-199 with wogonin): approx. 5 fold
- sensitization to ABT-199-mediated apoptosis (CEM cells; ABT-199 with wogonin): sensitized
- effect on killing efficacy of ABT-263 (CEM cells; [9]): enhanced the killing efficacy of ABT-263 in a dose-dependent manner
- reduction of ABT-263 dose required for inducing 50-70% cell death (CEM cells; in presence of wogonin): approximately 10 times
- cell death by wogonin alone (CEM cells; [10]): only minimal cell death
- effect on ABT-263-mediated apoptotic cell death [4]: dose-dependent increase
- effect on ABT-263-mediated apoptotic cell death (melanoma cell line A375): dose-dependent increase
- reduction of the ABT-199 dose (Molt-4 cells; ABT-199 with wogonin): approx. 5 fold
- sensitization to ABT-199-mediated apoptosis (Molt-4 cells; ABT-199 with wogonin): sensitized
- effect on killing efficacy of ABT-263 (Molt-4 cells; [9]): enhanced the killing efficacy of ABT-263 in a dose-dependent manner
- reduction of ABT-263 dose required for inducing 50-70% cell death (Molt-4 cells; in presence of wogonin): approximately 10 times
- cell death by wogonin alone (Molt-4 cells; [10]): only minimal cell death
- effect on toxicity of ABT-263 to normal proliferating T cells [5]: did not enhance the toxicity of ABT-263
- effect on toxicity of ABT-263 to normal proliferating T cells ([5]; listed as Wogonin): does not potentiate the toxicity of ABT-263
- effect on ABT-263-mediated apoptotic cell death [6]: dose-dependent increase
- effect on ABT-263-mediated apoptotic cell death [7]: dose-dependent increase
- re-sensitization to ABT-263-induced apoptotic cell death [8]: re-sensitized to ABT-263 treatment
- reduction of the ABT-199 dose (Jurkat (J16) cells; [11]): approx. 5 fold
- sensitization to ABT-199-mediated apoptosis (Jurkat (J16) cells; [11]): sensitized
- effect on killing efficacy of ABT-263 (Jurkat (J16) cells; Jurkat, ABT-263 plus different concentrations of wogonin, 24 h): enhanced the killing efficacy of ABT-263 in a dose-dependent manner
- reduction of ABT-263 dose required for inducing 50-70% cell death (Jurkat (J16) cells; Jurkat, in presence of wogonin): approximately 10 times
- cell death by wogonin alone (Jurkat (J16) cells; Jurkat, wogonin alone at the concentrations used for combination, 24 h): only minimal cell death

Reference: patent publication US20160158189A1, “SENSITIZATION OF CANCER CELLS TO APOPTOSIS INDUCTION BY FLAVAGLINES AND 5-HYDROXY-FLAVONES” (DEUTSCHES KREBSFORSCHUNGSZENTRUM, priority 2013, published 2016)
